Reference: publication PMC2629381 (Biochemistry, 2008)

Target: GluR4 (GluR4flip) (Rattus norvegicus, UniProt P19493, L505Y)
Experiment: whole-cell voltage-clamp dose-response
Type: cell-based

Chain of GluR4 (GluR4flip) (P19493 21-902 isoform P19493-2 L505Y): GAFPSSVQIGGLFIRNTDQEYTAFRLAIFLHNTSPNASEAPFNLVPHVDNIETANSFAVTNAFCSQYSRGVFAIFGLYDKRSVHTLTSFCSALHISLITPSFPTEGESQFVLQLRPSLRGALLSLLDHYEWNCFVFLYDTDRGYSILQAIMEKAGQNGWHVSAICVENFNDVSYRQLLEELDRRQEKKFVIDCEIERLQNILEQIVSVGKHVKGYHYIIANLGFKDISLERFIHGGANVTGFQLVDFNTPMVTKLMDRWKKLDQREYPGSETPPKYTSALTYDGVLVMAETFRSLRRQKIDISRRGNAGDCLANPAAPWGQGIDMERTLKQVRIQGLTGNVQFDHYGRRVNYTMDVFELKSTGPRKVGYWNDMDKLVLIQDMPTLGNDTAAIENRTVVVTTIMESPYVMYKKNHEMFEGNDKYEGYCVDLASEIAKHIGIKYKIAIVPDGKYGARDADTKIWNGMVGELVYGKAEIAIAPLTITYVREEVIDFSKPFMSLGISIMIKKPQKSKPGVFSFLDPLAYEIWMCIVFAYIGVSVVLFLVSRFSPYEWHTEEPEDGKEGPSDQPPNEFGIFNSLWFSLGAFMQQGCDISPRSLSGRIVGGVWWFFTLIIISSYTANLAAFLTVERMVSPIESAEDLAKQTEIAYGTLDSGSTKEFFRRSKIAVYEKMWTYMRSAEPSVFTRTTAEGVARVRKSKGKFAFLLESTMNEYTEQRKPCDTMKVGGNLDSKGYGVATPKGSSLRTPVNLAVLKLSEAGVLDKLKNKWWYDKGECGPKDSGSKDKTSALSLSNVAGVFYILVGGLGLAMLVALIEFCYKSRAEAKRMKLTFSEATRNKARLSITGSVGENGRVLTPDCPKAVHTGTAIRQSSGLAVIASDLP

Compound: C=C(C)[C@H]1CN[C@H](C(=O)O)[C@H]1CC(=O)O [Kainate, 2-carboxy-3-carboxymethyl-4-isopropenyl-pyrrolidine]
- EC50: 92 ± 14 µM
